From patent publication US7632840B2, “Quinazoline compounds for the treatment of hyperproliferative disorders” (AstraZeneca AB, priority 2004, dated 2009) come the findings set out here.

One assay concerns KB cells. In words: EGFR driven KB cell proliferation assay, Test (b). In kind it is cell-based. As to conditions: Homo sapiens. As to the method: Following adhesion to the plate, the cells are treated with or without EGF (final concentration of 1 ng/ml) and with or without compound at a range of concentrations in dimethylsulfoxide (DMSO) (0.1% final) before incubation for 4 days. […] MTT solution was then tipped off, the plate gently tapped dry and the cells dissolved upon the addition of 100 μl of DMSO.
Absorbance of the solubilised cells was read at 540 nm using a Molecular Devices ThermoMax microplate reader. Inhibition of proliferation was expressed as an IC50 value. […] The range of proliferation was calculated from the positive (vehicle plus EGF) and negative (vehicle minus EGF) control values.

The next assay concerns the target T1, EGFR tyrosine kinase (Homo sapiens, UniProt P00533).
T1 construct: Recombinant intracellular fragments of EGFR, erbB2 and erbB4; made in house; host or cells: baculovirus/Sf21 insect cells (cleared lysate used)
In words: Protein tyrosine kinase phosphorylation assay, Test (a). In kind it is biochemical. As to conditions: read-out: 1C50 (nM) Test (a) (Inhibition of EGFR tyrosine kinase protein phosphorylation). As for the experimental part: Recombinant intracellular fragments of EGFR, erbB2 and erbB4 (accession numbers X00588, X03363 and L07868 respectively) were cloned and expressed in the baculovirus/Sf21 system. Lysates were prepared from these cells by treatment with ice-cold lysis buffer (20 mM N-2-hydroxyethylpiperizine-N′-2-ethanesulfonic acid (HEPES) pH7.5, 150 mM NaCl, 10% glycerol, 1% Triton X-100, 1.5 mM MgCl2, 1 mM ethylene glycol-bis(β-aminoethyl ether) N′,N′,N′,N′-tetraacetic acid (EGTA), plus protease inhibitors and then cleared by centrifugation.
Constitutive kinase activity of these recombinant proteins was determined by their ability to phosphorylate a synthetic peptide (made up of a random co-polymer of Glutamic Acid, Alanine and Tyrosine in the ratio of 6:3:1). […]
The immobilised phospho-peptide product of the reaction was detected by immunological methods. […] After further washing, HRP activity in each well of the plate was measured colorimetrically using 22′-Azino-di-[3-ethylbenzthiazoline sulfonate (6)] diammonium salt crystals (ABTS™ from Roche) as a substrate.
Kinase inhibition for a given compound was expressed as an IC50 value. […] The range of phosphorylation was calculated from the positive (vehicle plus ATP) and negative (vehicle minus ATP) control values.

Molecules are shown by their SMILES.

T1 sequence (P00533 669-1210 limits assumed): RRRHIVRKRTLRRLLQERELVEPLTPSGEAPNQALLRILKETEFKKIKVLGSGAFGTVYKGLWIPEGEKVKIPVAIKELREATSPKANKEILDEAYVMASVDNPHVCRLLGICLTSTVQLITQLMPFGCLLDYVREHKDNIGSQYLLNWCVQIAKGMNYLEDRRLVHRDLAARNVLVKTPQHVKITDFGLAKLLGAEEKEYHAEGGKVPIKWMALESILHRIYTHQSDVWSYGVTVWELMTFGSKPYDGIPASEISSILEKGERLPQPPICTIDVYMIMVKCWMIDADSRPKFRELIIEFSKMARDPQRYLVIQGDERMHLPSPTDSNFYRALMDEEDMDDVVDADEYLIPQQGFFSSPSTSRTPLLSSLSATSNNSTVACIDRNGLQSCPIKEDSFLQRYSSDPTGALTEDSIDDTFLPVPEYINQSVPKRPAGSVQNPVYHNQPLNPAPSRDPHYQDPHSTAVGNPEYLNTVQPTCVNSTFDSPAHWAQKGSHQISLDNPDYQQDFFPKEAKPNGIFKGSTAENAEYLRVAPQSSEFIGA

Compound `COc1cc2ncnc(Nc3cccc(Cl)c3F)c2cc1CN(C)C1(C(N)=O)CCN(S(C)(=O)=O)CC1` [Example 66, 4-[({4-[(3-chloro-2-fluorophenyl)amino]-7-methoxyquinazolin-6-yl}methyl)(methyl)amino]-1-(methylsulfonyl)piperidine-4-carboxamide] returned an IC50 with KB cells of 91 nM.
Regarding `CNC(=O)C1(N(C)Cc2cc3c(Nc4cccc(Cl)c4F)ncnc3cc2OC)CCN(C)CC1` [Example 20, 4-[({4-[(3-chloro-2-fluorophenyl)amino]-7-methoxyquinazolin-6-yl}methyl)(methyl)amino]-N,1-dimethylpiperidine-4-carboxamide], the IC50 stood at 17 nM at EGFR tyrosine kinase and 36 nM in the assay on KB cells.
